The target in assay [1] is Beta Secretase enzyme (BACE1) (Homo sapiens, UniProt P56817). The assay can be described thus: In vitro enzymatic BACE FRET assay. In kind it is biochemical. Particulars: read-out: BACE1 FRET assay IC50. An outline of the steps:
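Readout: dequenched fluorescence (ex 488 nm/[…]) after neutralizing with Tris buffer. Reactions, begun by adding 50 nM quenched peptide substrate spanning the BACE cleavage site, were incubated one hour at pH 4.2 in 0.05 M acetate with 100 uM genapol and 10% final DMSO.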

Assay [2] has as its system Aβ40 in conditioned medium of cells stably expressing Amyloid Precursor Protein (APP). The assay can be described thus: In vitro BACE cell-based assay (HEK cell assay), Aβ40 sandwich ELISA. Particulars: Homo sapiens, HEK293; Aβ40, 24 h incubation. An outline of the steps: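 Aβ40 in conditioned medium was quantified by time-resolved fluorescence sandwich ELISA (pAb40 capture 3 h at 4 °C, biotin-6E10 detection 2 h at 4 °C) after 24 h compound exposure of APP-expressing cells. Doses spanned 10 points from 100 μM or 10 μM top, 0.1% DMSO; IC50 was derived from percent of control.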
(An ELISA detects its analyte on a solid surface through an enzyme-linked reagent.)

Assay [3] concerns the target T1, Cathepsin D (Cat D) (Homo sapiens, UniProt P07339).
T1 construct: Recombinant Cat D was expressed in CHO cells; made in house; host or cells: CHO cells
The assay can be described thus: In vitro enzymatic Cathepsin D (Cat D) FRET assay. In kind it is biochemical. Particulars: read-out: CatD IC50. An outline of the steps: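 FRET read-out: a fluorophore/quencher-labelled peptide substrate is cleaved by 9 nM Cat D (recombinant, CHO-expressed) following a one-hour preincubation with inhibitor dilutions in DMSO. Tris buffer added to neutralize pH ends the reaction before fluorescence measurement.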

T1 sequence (P07339 65-412, species assumed): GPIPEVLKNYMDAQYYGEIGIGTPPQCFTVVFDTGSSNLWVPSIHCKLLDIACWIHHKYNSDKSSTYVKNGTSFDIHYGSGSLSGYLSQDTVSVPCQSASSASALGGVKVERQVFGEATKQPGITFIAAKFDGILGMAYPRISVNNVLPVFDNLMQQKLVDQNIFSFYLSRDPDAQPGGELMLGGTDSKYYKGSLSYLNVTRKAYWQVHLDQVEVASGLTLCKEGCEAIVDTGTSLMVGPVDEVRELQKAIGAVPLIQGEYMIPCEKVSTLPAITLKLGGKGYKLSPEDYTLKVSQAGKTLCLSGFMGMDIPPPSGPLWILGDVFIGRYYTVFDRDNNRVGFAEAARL
Chain of Beta Secretase enzyme (BACE1) (P56817 46-501): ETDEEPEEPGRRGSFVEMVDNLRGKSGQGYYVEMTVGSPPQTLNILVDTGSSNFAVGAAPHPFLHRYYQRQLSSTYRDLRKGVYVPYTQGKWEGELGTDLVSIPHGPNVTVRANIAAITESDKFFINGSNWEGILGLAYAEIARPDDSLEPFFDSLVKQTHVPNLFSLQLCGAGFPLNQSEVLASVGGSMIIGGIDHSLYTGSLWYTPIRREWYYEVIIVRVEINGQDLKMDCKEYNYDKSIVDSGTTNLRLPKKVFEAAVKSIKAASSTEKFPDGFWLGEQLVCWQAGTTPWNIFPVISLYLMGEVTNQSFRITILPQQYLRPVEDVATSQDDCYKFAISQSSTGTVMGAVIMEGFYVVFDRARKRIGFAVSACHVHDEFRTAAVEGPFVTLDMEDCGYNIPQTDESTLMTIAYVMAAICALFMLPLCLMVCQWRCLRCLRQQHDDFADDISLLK

`COc1cnc2c(Nc3ccc(F)c([C@]4(C)CS(=O)(=O)[C@@](C)(F)C(N)=N4)c3)nccc2c1` [Example 74, (3R,6R)-5-Amino-6-fluoro-3-(2-fluorophenyl-5-((3-methoxy-1,7-naphthyridin-8-yl)amino)phenyl)-3,6-dimethyl-3,6-dihydro-2H-1,4-thiazine 1,1-dioxide]: the IC50 in assay [1] was 13.7 nM; in assay [2], 102 nM; in assay [3], more than 400000 nM.
On the same counts, the results for `COc1cnc2c(Nc3ccc(F)c([C@]4(C)CS(=O)(=O)C(C)(C)C(N)=N4)c3)cccc2n1` [Example 75, (R)-5-Amino-3-(2-fluoro-5-((2-methoxyquinoxalin-5-yl)amino)phenyl)-3,6,6-trimethyl-3,6-dihydro-2H-1,4-thiazine 1,1-dioxide] are 11.4 nM, 212 nM and 47600 nM.
For `CC1(C)C(N)=N[C@](C)(c2cc(Nc3ncc(F)c4cc(C#N)cnc34)ccc2F)CS1(=O)=O` [Example 76, (R)-8-((3-(5-Amino-3,6,6-trimethyl-1,1-dioxido-3,6-dihydro-2H-1,4-thiazin-3-yl)-4-fluorophenyl)amino)-5-fluoro-1,7-naphthyridine-3-carbonitrile], the figures for the half-inhibitory concentration (IC50) in assay [1], in assay [2] and in assay [3] were 2 nM, 3.9 nM and more than 44000 nM, respectively.
For `CC1(C)C(N)=N[C@@](C)(c2cc(Nc3noc4cc(Cl)cnc34)ccc2F)CS1(=O)=O` [Example 78, (S)-5-Amino-3-(5-((6-chloroisoxazolo[4,5-b]pyridin-3-yl)amino)-2-fluorophenyl)-3,6,6-trimethyl-3,6-dihydro-2H-1,4-thiazine 1,1-dioxide], the half-maximal inhibitory concentration (IC50) in assay [1] worked out at 13.8 nM; in assay [2], 94.4 nM; in assay [3], 45600 nM.
As for `CC1(C)C(N)=N[C@](C)(c2cc(Sc3cccc4ccccc34)ccc2F)CS1(=O)=O` [Example 79, (R)-5-Amino-3-(2-fluoro-5-(naphthalen-1-ylthio)phenyl)-3,6,6-trimethyl-3,6-dihydro-2H-1,4-thiazine 1,1-dioxide], the half-inhibitory concentration (IC50) came out at 2500 nM in assay [1], 4940 nM in assay [2] and 33700 nM in assay [3].
Turning to `COc1cnc(C(=O)Nc2ccc(F)c([C@]3(C)CS(=O)(=O)C(C)C(N)=N3)c2)cn1` (stereo partly drawn) [Example 82, N-(3-((3R)-5-Amino-3,6-dimethyl-1,1-dioxido-3,6-dihydro-2H-1,4-thiazin-3-yl)-4-fluorophenyl)-5-methoxypyrazine-2-carboxamide], the IC50 in assay [1] is 7.5 nM; in assay [2], 12.5 nM; in assay [3], more than 400000 nM.
Turning to `COc1cnc2c(Nc3ccc(F)c([C@]4(C)CS(=O)(=O)C5(CCCC5)C(N)=N4)c3)nccc2c1` [Example 84, (R)-10-Amino-8-(2-fluoro-5-((3-methoxy-1,7-naphthyridin-8-yl)amino)phenyl)-8-methyl-6-thia-9-azaspiro[4.5]dec-9-ene 6,6-dioxide], the concentration for half-maximal inhibition (IC50) in assay [1] stood at 23.4 nM; in assay [2], 57.5 nM; in assay [3], 283000 nM.
On to `COc1cnc2c(Nc3ccc(F)c([C@]4(C)CS(=O)(=O)C5(CC5)C(N)=N4)c3)nccc2c1` [Example 86, (R)-8-Amino-6-(2-fluoro-5-((3-methoxy-1,7-naphthyridin-8-yl)amino)phenyl)-6-methyl-4-thia-7-azaspiro[2.5]oct-7-ene 4,4-dioxide], for which the IC50 in assay [1] turned out to be 13.6 nM; in assay [2], 8.2 nM; in assay [3], 160000 nM.
`CC1(C)C(N)=N[C@](C)(c2cc(Oc3ccc(C#N)cc3)ccc2F)CS1(=O)=O` [Example 96, (R)-4-(3-(5-amino-3,6,6-trimethyl-1,1-dioxido-3,6-dihydro-2H-1,4-thiazin-3-yl)-4-fluorophenoxy)benzonitrile]: the concentration for half-maximal inhibition (IC50) in assay [1] was determined as 1800 nM; in assay [2], 6020 nM; in assay [3], 58700 nM.

Usually IC50 stands for the concentration needed to halve the response being measured.

Values taken from patent US20140107109A1, “AMINO-DIHYDROTHIAZINE AND AMINO-DIOXIDO DIHYDROTHIAZINE COMPOUNDS AS BETA-SECRETASE ANTAGONISTS AND METHODS OF USE” (Amgen Inc., priority 2012, published 2014).
